Key:
ragweed [1] = assay: Test C preemergence; type: in vivo, Ambrosia artemisiifolia; details: 0 to 100 scale (0 no effect, 100 complete control); for Plant response rating, Ragweed: Preemergence, 500 g ai/ha, visual rating after 10 days; for Ragweed plant response rating: Test C, preemergence, 125 g ai/ha
How it was run: (§1)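 Pre: seeds in loam/sand, directed soil spray. Post: 1–2 leaf plants, 2–10 cm. Cmpd in non-phytotoxic solvent + surfactant. Greenhouse 10 d; visual rating vs untreated, 0 = none, 100 = complete control.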

barnyardgrass [2] = assay: Test D flooded paddy test; type: in vivo, Echinochloa crus-galli; details: 250 g ai/ha, applied to paddy water, visual rating after 13 to 14 days, scale 0 to 100 (0 no effect, 100 complete control)
How it was run: (§2)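 Plants at the 2-leaf stage were grown in pots flooded to 3 cm, and compound was applied directly into the paddy water, with depth kept throughout. After 13–14 days in a greenhouse, injury was rated visually against untreated controls on a 0–100 scale (100 = complete control); a dash means not tested.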

barnyardgrass [3] = assay: Test C preemergence; type: in vivo, Echinochloa crusgalli; details: 0 to 100 scale (0 no effect, 100 complete control); for Plant response rating, Barnyardgrass: Preemergence, 500 g ai/ha, visual rating after 10 days; for Barnyardgrass plant response rating: Test C, preemergence, 125 g ai/ha
How it was run: as §1

horseweed = assay: Test C postemergence; type: in vivo, Erigeron canadensis; details: 10 days
How it was run: as §1

green foxtail [4] = assay: Test C postemergence; type: in vivo, Setaria viridis; details: 10 days
How it was run: as §1

blackgrass [5] = assay: Test C preemergence; type: in vivo, Alopecurus myosuroides; details: 0 to 100 scale (0 no effect, 100 complete control); for Plant response rating, Blackgrass: Preemergence, 500 g ai/ha, visual rating after 10 days; for Blackgrass plant response rating: Test C, preemergence, 125 g ai/ha
How it was run: as §1

soybean [6] = assay: Test C preemergence; type: in vivo, Glycine max; details: 0 to 100 scale (0 no effect, 100 complete control); for Plant response rating, Soybean: Preemergence, 500 g ai/ha, visual rating after 10 days; for Soybean plant response rating: Test C, preemergence, 125 g ai/ha
How it was run: as §1

pigweed, palmer [7] = assay: Test C preemergence; type: in vivo, Amaranthus palmeri; details: 0 to 100 scale (0 no effect, 100 complete control); for Plant response rating, Pigweed, Palmer: Preemergence, 500 g ai/ha, visual rating after 10 days
How it was run: as §1

blackgrass [8] = assay: Test C postemergence; type: in vivo, Alopecurus myosuroides; details: 10 days
How it was run: as §1

kochia [9] = assay: Test C preemergence; type: in vivo, Bassia scoparia; details: 0 to 100 scale (0 no effect, 100 complete control); for Plant response rating, Kochia: Preemergence, 500 g ai/ha, visual rating after 10 days; for Kochia plant response rating: Test C, preemergence, 125 g ai/ha
How it was run: as §1

corn [10] = assay: Test C preemergence; type: in vivo, Zea mays; details: 0 to 100 scale (0 no effect, 100 complete control); for Plant response rating, Corn: Preemergence, 500 g ai/ha, visual rating after 10 days; for Corn plant response rating: Test C, preemergence, 125 g ai/ha
How it was run: as §1

oat, wild [11] = assay: Test C postemergence; type: in vivo, Avena fatua; details: 10 days
How it was run: as §1

ragweed [12] = assay: Test C postemergence; type: in vivo, Ambrosia artemisiifolia; details: 10 days
How it was run: as §1

oat, wild [13] = assay: Test C preemergence; type: in vivo, Avena fatua; details: 0 to 100 scale (0 no effect, 100 complete control); for Plant response rating, Oat, Wild: Preemergence, 500 g ai/ha, visual rating after 10 days; for Oat, Wild plant response rating: Test C, preemergence, 125 g ai/ha
How it was run: as §1

wheat [14] = assay: Test C preemergence; type: in vivo, Triticum aestivum; details: 0 to 100 scale (0 no effect, 100 complete control); for Plant response rating, Wheat: Preemergence, 500 g ai/ha, visual rating after 10 days; for Wheat plant response rating: Test C, preemergence, 125 g ai/ha
How it was run: as §1

rice = assay: Test D flooded paddy test; type: in vivo, Oryza sativa; details: 250 g ai/ha, applied to paddy water, visual rating after 13 to 14 days, scale 0 to 100 (0 no effect, 100 complete control)
How it was run: as §2

soybean [15] = assay: Test C postemergence; type: in vivo, Glycine max; details: 10 days
How it was run: as §1

pigweed, palmer [16] = assay: Test C postemergence; type: in vivo, Amaranthus palmeri; details: 10 days
How it was run: as §1

ryegrass, Italian [17] = assay: Test C preemergence; type: in vivo, Lolium multiflorum; details: 0 to 100 scale (0 no effect, 100 complete control); for Plant response rating, Ryegrass, Italian: Preemergence, 500 g ai/ha, visual rating after 10 days; for Ryegrass, Italian plant response rating: Test C, preemergence, 125 g ai/ha
How it was run: as §1

wheat [18] = assay: Test C postemergence; type: in vivo, Triticum aestivum; details: 10 days
How it was run: as §1

kochia [19] = assay: Test C postemergence; type: in vivo, Bassia scoparia; details: 10 days
How it was run: as §1

ryegrass, Italian [20] = assay: Test C postemergence; type: in vivo, Lolium multiflorum; details: 10 days
How it was run: as §1

ducksalad = assay: Test D flooded paddy test; type: in vivo, Heteranthera limosa; details: 250 g ai/ha, applied to paddy water, visual rating after 13 to 14 days, scale 0 to 100 (0 no effect, 100 complete control)
How it was run: as §2

barnyardgrass [21] = assay: Test C postemergence; type: in vivo, Echinochloa crusgalli; details: 10 days
How it was run: as §1

green foxtail [22] = assay: Test C preemergence; type: in vivo, Setaria viridis; details: 0 to 100 scale (0 no effect, 100 complete control); for Plant response rating, Foxtail, Green: Preemergence, 500 g ai/ha, visual rating after 10 days; for Foxtail, Green plant response rating: Test C, preemergence, 125 g ai/ha
How it was run: as §1

corn [23] = assay: Test C postemergence; type: in vivo, Zea mays; details: 10 days
How it was run: as §1

sedge, umbrella = assay: Test D flooded paddy test; type: in vivo, Cyperus difformis; details: 250 g ai/ha, applied to paddy water, visual rating after 13 to 14 days, scale 0 to 100 (0 no effect, 100 complete control)
How it was run: as §2

[24] = 125 g ai/ha, postemergence, 0 to 100 scale, 0 no effect, 100 complete control
[25] = Postemergence, 500 g ai/ha, visual 0 to 100 scale (0 no effect, 100 complete control)

With `COc1cc(C(=O)N2C[C@H](C)Oc3c(Cl)cccc32)cc(-n2cnc(C3CC3)n2)c1` [Compound 216] the “Plant response rating, Ragweed” value (ragweed [1]) was 40, the “Ragweed plant response rating” value (ragweed [1]) was 0 and the “Plant response rating, Barnyardgrass (Flood)” value (barnyardgrass [2]) was 40. For the same compound, the “Plant response rating, Barnyardgrass” value (barnyardgrass [3]) was 90, the “Barnyardgrass plant response rating” value (barnyardgrass [3]) was 40 and the “Plant response rating, Horseweed” value (horseweed; [24]) was 0. For the same compound, the “Plant response rating, Horseweed” value (horseweed; [25]) was 50, the “Plant response rating, Foxtail, Green” value (green foxtail [4]; [24]) was 70 and the “Plant response rating, Foxtail, Green” value (green foxtail [4]; [25]) was 90. The “Plant response rating, Blackgrass” value (blackgrass [5]) was 90, the “Blackgrass plant response rating” value (blackgrass [5]) was 20 and the “Plant response rating, Soybean” value (soybean [6]) was 100. The “Soybean plant response rating” value (soybean [6]) was 50, the “Plant response rating, Pigweed, Palmer” value (pigweed, palmer [7]) was 100 and the “Pigweed, Palmer plant response rating” value (pigweed, palmer [7]; Test C, preemergence, 125 g ai/ha) was 100. For the same compound, the “Plant response rating, Blackgrass” value (blackgrass [8]; [24]) was 30, the “Plant response rating, Blackgrass” value (blackgrass [8]; [25]) was 100 and the “Plant response rating, Kochia” value (kochia [9]) was 100. The “Kochia plant response rating” value (kochia [9]) was 70, the “Plant response rating, Corn” value (corn [10]) was 30 and the “Corn plant response rating” value (corn [10]) was 0. The “Plant response rating, Oat, Wild” value (oat, wild [11]; [24]) was 20, the “Plant response rating, Oat, Wild” value (oat, wild [11]; [25]) was 20 and the “Plant response rating, Ragweed” value (ragweed [12]; [24]) was 60. For the same compound, the “Plant response rating, Ragweed” value (ragweed [12]; [25]) was 80, the “Plant response rating, Oat, Wild” value (oat, wild [13]) was 40 and the “Oat, Wild plant response rating” value (oat, wild [13]) was 0. The “Plant response rating, Wheat” value (wheat [14]) was 20, the “Wheat plant response rating” value (wheat [14]) was 0 and the “Plant response rating, Rice (Flood)” value (rice) was 10. The “Plant response rating, Soybean” value (soybean [15]; [24]) was 100, the “Plant response rating, Soybean” value (soybean [15]; [25]) was 100 and the “Plant response rating, Pigweed, Palmer” value (pigweed, palmer [16]; [24]) was 80. The “Plant response rating, Pigweed, Palmer” value (pigweed, palmer [16]; [25]) was 90, the “Plant response rating, Ryegrass, Italian” value (ryegrass, Italian [17]) was 90 and the “Ryegrass, Italian plant response rating” value (ryegrass, Italian [17]) was 80. For the same compound, the “Plant response rating, Wheat” value (wheat [18]; [24]) was 20, the “Plant response rating, Wheat” value (wheat [18]; [25]) was 30 and the “Plant response rating, Kochia” value (kochia [19]; [24]) was 80. For the same compound, the “Plant response rating, Kochia” value (kochia [19]; [25]) was 90, the “Plant response rating, Ryegrass, Italian” value (ryegrass, Italian [20]; [24]) was 20 and the “Plant response rating, Ryegrass, Italian” value (ryegrass, Italian [20]; [25]) was 60. For the same compound, the “Plant response rating, Ducksalad (Flood)” value (ducksalad) was 100, the “Plant response rating, Barnyardgrass” value (barnyardgrass [21]; [24]) was 10 and the “Plant response rating, Barnyardgrass” value (barnyardgrass [21]; [25]) was 60. For the same compound, the “Plant response rating, Foxtail, Green” value (green foxtail [22]) was 100, the “Foxtail, Green plant response rating” value (green foxtail [22]) was 100 and the “Plant response rating, Corn” value (corn [23]; [24]) was 10. The “Plant response rating, Corn” value (corn [23]; [25]) was 20 and the “Plant response rating, Sedge, Umbrella (Flood)” value (sedge, umbrella) was 95.

`Cc1cn(-c2cccc(C(=O)N3C[C@H](C)Oc4c(C)cccc43)c2)cn1` [Compound 232] was tested, and the “Plant response rating, Ragweed” value (ragweed [1]) was 0, the “Ragweed plant response rating” value (ragweed [1]) was 0 and the “Plant response rating, Barnyardgrass (Flood)” value (barnyardgrass [2]) was 0. The “Plant response rating, Barnyardgrass” value (barnyardgrass [3]) was 0, the “Barnyardgrass plant response rating” value (barnyardgrass [3]) was 0 and the “Plant response rating, Horseweed” value (horseweed; [24]) was 0. The “Plant response rating, Horseweed” value (horseweed; [25]) was 0, the “Plant response rating, Foxtail, Green” value (green foxtail [4]; [24]) was 0 and the “Plant response rating, Foxtail, Green” value (green foxtail [4]; [25]) was 30. For the same compound, the “Plant response rating, Blackgrass” value (blackgrass [5]) was 0, the “Blackgrass plant response rating” value (blackgrass [5]) was 0 and the “Plant response rating, Soybean” value (soybean [6]) was 0. For the same compound, the “Soybean plant response rating” value (soybean [6]) was 0, the “Plant response rating, Pigweed, Palmer” value (pigweed, palmer [7]) was 0 and the “Plant response rating, Blackgrass” value (blackgrass [8]; [24]) was 0. The “Plant response rating, Blackgrass” value (blackgrass [8]; [25]) was 50, the “Plant response rating, Kochia” value (kochia [9]) was 0 and the “Kochia plant response rating” value (kochia [9]) was 0. The “Plant response rating, Corn” value (corn [10]) was 0, the “Corn plant response rating” value (corn [10]) was 0 and the “Plant response rating, Oat, Wild” value (oat, wild [11]; [24]) was 0. For the same compound, the “Plant response rating, Oat, Wild” value (oat, wild [11]; [25]) was 0, the “Plant response rating, Ragweed” value (ragweed [12]; [24]) was 0 and the “Plant response rating, Ragweed” value (ragweed [12]; [25]) was 30. The “Plant response rating, Oat, Wild” value (oat, wild [13]) was 0, the “Oat, Wild plant response rating” value (oat, wild [13]) was 0 and the “Plant response rating, Wheat” value (wheat [14]) was 0. The “Wheat plant response rating” value (wheat [14]) was 0, the “Plant response rating, Rice (Flood)” value (rice) was 0 and the “Plant response rating, Soybean” value (soybean [15]; [24]) was 100. For the same compound, the “Plant response rating, Soybean” value (soybean [15]; [25]) was 100, the “Plant response rating, Pigweed, Palmer” value (pigweed, palmer [16]; [24]) was 0 and the “Plant response rating, Pigweed, Palmer” value (pigweed, palmer [16]; [25]) was 10. The “Plant response rating, Ryegrass, Italian” value (ryegrass, Italian [17]) was 20, the “Ryegrass, Italian plant response rating” value (ryegrass, Italian [17]) was 20 and the “Plant response rating, Wheat” value (wheat [18]; [24]) was 10. The “Plant response rating, Wheat” value (wheat [18]; [25]) was 10, the “Plant response rating, Kochia” value (kochia [19]; [24]) was 0 and the “Plant response rating, Kochia” value (kochia [19]; [25]) was 60. For the same compound, the “Plant response rating, Ryegrass, Italian” value (ryegrass, Italian [20]; [24]) was 30, the “Plant response rating, Ryegrass, Italian” value (ryegrass, Italian [20]; [25]) was 60 and the “Plant response rating, Ducksalad (Flood)” value (ducksalad) was 0. For the same compound, the “Plant response rating, Barnyardgrass” value (barnyardgrass [21]; [24]) was 10, the “Plant response rating, Barnyardgrass” value (barnyardgrass [21]; [25]) was 20 and the “Plant response rating, Foxtail, Green” value (green foxtail [22]) was 0. For the same compound, the “Foxtail, Green plant response rating” value (green foxtail [22]) was 0, the “Plant response rating, Corn” value (corn [23]; [24]) was 0 and the “Plant response rating, Corn” value (corn [23]; [25]) was 0. For the same compound, the “Plant response rating, Sedge, Umbrella (Flood)” value (sedge, umbrella) was 0.

Source: US20260262643A1, “HERBICIDAL BENZOXAZINES” (FMC CORPORATION, priority 2022, published 2026)
